Data on six compounds can be found in PubChem BioAssay (NCI).

SMILES strings stand for the structures.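 Protocol summary: plate cells (96-well), add compound at 5 concentrations, incubate 48 h, interpolate endpoints linearly. TGI marks complete inhibition of growth.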 Where only a bound is given, the exact number is not on record here.

Holding throughout (experiment): NCI tumour cell line growth inhibition, 48 h
In assay [1] the test system is K-562 leukemia.
Assay [2] relates to CAKI-1 renal.
The test system of assay [3] is HL-60(TB) leukemia.
Assay [4] deals with SNB-19 CNS.
Assay [5] relates to NCI-H226 lung.
Assay [6] concerns A549 NSCLC.
For assay [7], the system named is SF-268 CNS.
Assay [8] deals with NCI-H23 lung.
Assay [9] deals with OVCAR-4 ovarian.
Assay [10] deals with HCT-15 colon.

`CC1(C)Oc2ccc(Cl)cc2C12CC2`: the TGI in assay [1] is 39.2 µM; in assay [2] it was 31.2 µM; in assay [3], 40.3 µM; in [4], 31.5 µM; in assay [5] it was 32.2 µM; in [6], 48.4 µM. The TGI in assay [7] came to 31.6 µM; in assay [8] it was 59 µM; in assay [9], 29.6 µM; in assay [10], 33 µM.
Regarding `CC(O)(c1ccccc1)c1nccc2ccccc12` (stereo not given), the TGI in assay [1], in assay [2], in [3], in assay [4], in assay [5] and in [6] was more than 100 µM in each case. Also, the TGI in assay [7], in assay [8], in [9] and in assay [10] was more than 100 µM throughout.
`COC(=O)C1(NC(=O)C(N)CC(=O)O)C(C)C1C` (stereo not given): the TGI in assay [1], in [2], in [3], in assay [4], in [5] and in [6] was more than 100 µM each time. The TGI in assay [7], in assay [8], in assay [9] and in assay [10] was more than 100 µM each time.
In the case of `O=C([C@H](O)[C@@H](O)c1ccc(Br)cc1)C12CC3CC(CC(C3)C1)C2`, the TGI in [1] is more than 100 µM; in [2] it was 59.2 µM; in [3], more than 26.5 µM; in assay [4], more than 90.4 µM; in [5], more than 85.7 µM; in assay [6], 97 µM. Further, the TGI in assay [7] is more than 70.6 µM; in assay [8], more than 37.9 µM; in assay [9], more than 100 µM; in assay [10], more than 75 µM.
As for `COc1ccc2[nH]c(C(=O)N3CC(CCl)c4ccc([N+](=O)[O-])cc43)cc2c1` (stereo not given), the TGI in assay [1], in [2], in assay [3], in [4], in assay [5] and in assay [6] was more than 100 µM in each case. In addition, the TGI in [7], in assay [8], in assay [9] and in assay [10] was more than 100 µM throughout.
For `CC[C@@]1(O)C(=O)OCc2c1cc1n(c2=O)Cc2c-1nc1ccccc1c2/C=N\NC(=O)C(N)CS` (stereo not given in full), the TGI is more than 100 µM in assay [1]; more than 91.3 µM in [2]; more than 100 µM in assay [3]; more than 31.6 µM in [4]; 34.1 µM in [5]; more than 100 µM in assay [6]. Further, the TGI was more than 100 µM in assay [7], 21.1 µM in assay [8], more than 100 µM in assay [9] and more than 100 µM in assay [10].
